Bridge positions count the residues as written; N and C are the ends. Square brackets hold non-standard residues; d marks the D form. Peptide text beside a SMILES is read from it. hCys = N[C@@H](CCS)C(=O)O

The assay has as its target Type-2 angiotensin II receptor (Sus scrofa). The assay is described as follows: Displacement of [125I]-Ang II from pig uterus myometrium angiotensin II type 2 (AT2) receptor. On the technique in general: Loss of bound radioactivity is the signal in a displacement assay; it reports binding, not function.

Usually Ki stands for a measure of affinity in units of concentration, obtained from inhibition or displacement. A higher Ki goes with weaker binding. `NC(N)=NCCC[C@H](NC(=O)[C@@H](N)CC(=O)O)C(=O)N[C@H]1CCSSCC[C@@H](C(=O)N[C@@H](Cc2c[nH]cn2)C(=O)N2CCC[C@H]2C(=O)N[C@@H](Cc2ccccc2)C(=O)O)NC(=O)[C@H](Cc2ccc(O)cc2)NC1=O` [c[Hcy3,5]Ang II] (H-DR[hCys]Y[hCys]HPF-OH; disulfide 3-5) showed a Ki of 2.1 nM.
